Values quoted from earlier work as cited in doi:10.1101/2025.05.13.653654v1, “PEPlife2: A Updated Repository of the Half-life of Peptides” (bioRxiv, 2025).

Text: Our database includes various chemical modifications aimed at enhancing the stability of peptides or proteins, such as PEGylation, Fc-conjugation, amino acid replacements (e.g., Lys substitutions followed by fatty acid conjugation), D-amino acid substitutions, non-natural amino acid substitutions (e.g., Aib, Sar, pGlu), cyclization, amidation, acetylation, and others.

Half life | Substance | half-life (approximate values, effect of N-terminal acetylation and C-terminal amidation, matrix not given, curated database entry, ref not given)
1.16 h | CMPRLRGC [VH434] | –
3.03 h | cMPRLRGC [VH445] | –
– | DRVYIHP [Ang(1-7)] | approximately 9 minutes
